Measured values reported in ChEMBL document CHEMBL5038614, “Discovery of styrylaniline derivatives as novel alpha-synuclein aggregates ligands” (Eur J Med Chem, 2021).
Values belong to the compound of their own block, whether it stands above or below them. Active and inactive are the calls of the source. The rule behind the calls is not given here.

Assays:
Alpha-synuclein = Alpha-synuclein (Homo sapiens, UniProt P37840); assay: Binding affinity to recombinant human alpha-syn aggregates assessed as dissociation constant by SPR analysis
[1] = Plasma concentration in Sprague-Dawley rat at 5 mg/kg, iv measured upto 120 mins by LC-MS/MS analysis; type: ADME, organism-based
Mus musculus [2] = species: Mus musculus; assay: Binding affinity to alpha-syn PFF in chronic C57BL/6 mouse brain straitum measured for 1 hrs by immunofluorescence confocal microscopic analysis; type: tissue-based; conditions: Striatum
[3] = Permeability of compound in BBB assay; type: ADME
[4] = Brain concentration in Sprague-Dawley rat at 5 mg/kg, iv measured upto 120 mins by LC-MS/MS analysis; type: ADME, organism-based; conditions: read-out: Ct
[5] = Ratio of drug concentration in Sprague-Dawley rat brain to plasma at 5 mg/kg, iv measured upto 120 mins by LC-MS/MS analysis; type: ADME, organism-based; conditions: read-out: BPR
Mus musculus [6] = species: Mus musculus; assay: Binding affinity to alpha-syn PFF in acute C57BL/6 mouse brain striatum measured after 1 hrs by immunofluorescence confocal microscopic analysis; type: tissue-based
Mus musculus [7] = species: Mus musculus; assay: Binding affinity to alpha-syn PFF in chronic C57BL/6 mouse M2 motor cortex measured for 1 hrs by immunofluorescence confocal microscopic analysis; type: tissue-based

Structure (SMILES): O=C(Nc1ccc(/C=C/c2ccc(F)cc2)cc1)c1ccccc1
Kd (Alpha-synuclein): > 10 µM

Structure (SMILES): CN(C)c1ccc(/C=C/c2ccccc2NC(=O)c2ccccn2)cc1
concentration at 2 h [1]: 6.06 µM
Activity (Mus musculus [2]): Active
pBBB [3]: > 0.3
concentration at 2 h [4]: 15.9 µM
Kp at 2 h [5]: 2.62
Activity (Mus musculus [6]): inactive

Structure (SMILES): O=C(Nc1ccccc1/C=C/c1ccc([N+](=O)[O-])cc1)c1cccnn1
Kd (Alpha-synuclein): > 10 µM

Structure (SMILES): O=C(Nc1ccccc1/C=C/c1ccc([N+](=O)[O-])cc1)c1ccccn1
concentration at 2 h [1]: 38.5 µM
Activity (Mus musculus [2]): Active
pBBB [3]: > 0.3
concentration at 2 h [4]: 46.8 µM
Kp at 2 h [5]: 1.21
Activity (Mus musculus [6]): Active
Activity (Mus musculus [7]): Active

Structure (SMILES): COc1ccc(/C=C/c2ccc(NC(=O)c3ccccc3)cc2)cc1
Kd (Alpha-synuclein): > 10 µM

Now from value to compound:

Kd (Alpha-synuclein): > 10 µM
Structure (SMILES): COc1ccc(/C=C/c2ccccc2NC(=O)c2cccs2)cc1

Kd (Alpha-synuclein): > 10 µM
Structure (SMILES): COc1ccc(/C=C/c2ccccc2NC(=O)c2cccnc2)cc1

Kd (Alpha-synuclein): > 10 µM
Structure (SMILES): COc1ccc(/C=C/c2ccccc2NC(=O)NCc2cnccn2)cc1

Kd (Alpha-synuclein): > 10 µM
Structure (SMILES): O=C(Nc1ccccc1/C=C/c1ccc(F)cc1)c1cccnn1

Kd (Alpha-synuclein): > 10 µM
Structure (SMILES): COc1ccc(/C=C/c2ccccc2NC(=O)c2cccnn2)cc1
